Test systems include SK-MEL-28 melanoma; A498 renal; HOP-92 NSCLC; OVCAR-3 ovarian; ACHN renal; NCI-H522 lung; MOLT-4 leukemia; NCI/ADR-RES ovarian; IGROV1 ovarian; OVCAR-5 ovarian.
Common to all, as to test: DTP human tumour cell line panel, 48 h

Each structure is given as a SMILES string.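 In this assay, cells in 96-well plates receive the compound at five concentrations for 48 hours. Endpoints are linearly interpolated between the surrounding concentrations. GI50 marks 50% less growth. Definition used: TGI = concentration required for complete inhibition of growth.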

As to `CC(C)c1ccc(-c2cc(-c3cn[nH]c3-c3ccccn3)ccn2)cc1`, the GI50 in the assay on SK-MEL-28 melanoma was more than 25000 nM; with A498 renal, more than 13.6 µM; in the assay on HOP-92 NSCLC it was 1990 nM; in the assay on OVCAR-3 ovarian, 8400 nM; in the assay on ACHN renal, 18.5 µM; in the assay on NCI-H522 lung, 6820 nM. Also, the GI50 is 8.06 µM in the assay on MOLT-4 leukemia, 7.98 µM with NCI/ADR-RES ovarian, more than 23300 nM in the assay with IGROV1 ovarian and more than 16.6 µM in the assay on OVCAR-5 ovarian. The TGI in the assay with SK-MEL-28 melanoma, in the assay on A498 renal, in the assay on HOP-92 NSCLC, in the assay on OVCAR-3 ovarian, in the assay with ACHN renal and in the assay on NCI-H522 lung was more than 25 µM in each case. Also, the TGI with MOLT-4 leukemia was more than 24.1 µM; in the assay with NCI/ADR-RES ovarian it was more than 25 µM; with IGROV1 ovarian it was more than 25 µM; in the assay on OVCAR-5 ovarian, more than 25 µM.
As to `O=C1/C(=C(/c2ccccc2)N2CCOCC2)Cc2ccccc21`, the GI50 in the assay with SK-MEL-28 melanoma was 1450 nM; with A498 renal, 5.19 µM; in the assay with HOP-92 NSCLC, 1240 nM; in the assay on OVCAR-3 ovarian, 479 nM; in the assay on ACHN renal, 1.64 µM; with NCI-H522 lung, 492 nM. For the same molecule, the GI50 with MOLT-4 leukemia was more than 100 µM; in the assay on NCI/ADR-RES ovarian it was 4.68 µM; in the assay with IGROV1 ovarian it was 1460 nM; in the assay with OVCAR-5 ovarian it was 3.26 µM. For the same molecule, the TGI in the assay with SK-MEL-28 melanoma came to 2.85 µM; in the assay with A498 renal it was 11.4 µM; with HOP-92 NSCLC, 3.01 µM; in the assay with OVCAR-3 ovarian, 1.5 µM; in the assay on ACHN renal, 3.69 µM; in the assay with NCI-H522 lung, 1.89 µM. In addition, the TGI in the assay on MOLT-4 leukemia is more than 100 µM; in the assay on NCI/ADR-RES ovarian, 21.4 µM; with IGROV1 ovarian, 3.61 µM; in the assay with OVCAR-5 ovarian, 9.57 µM.
`C=C1C(=O)O[C@H]2[C@H]1CC/C(COC(=O)NCCCCNC(=O)OC/C1=C/CC[C@@]3(C)O[C@H]3[C@H]3OC(=O)C(=C)[C@@H]3CC1)=C\CC[C@@]1(C)O[C@@H]21`: the GI50 in the assay with SK-MEL-28 melanoma is 529 nM; in the assay on A498 renal, 6.36 µM; with HOP-92 NSCLC, 287 nM; with OVCAR-3 ovarian, 693 nM; in the assay with ACHN renal, 3.44 µM; in the assay on NCI-H522 lung, 167 nM. For the same molecule, the GI50 in the assay on MOLT-4 leukemia was 1.47 µM; in the assay on NCI/ADR-RES ovarian it was 37.7 µM; in the assay with IGROV1 ovarian, 3320 nM; in the assay with OVCAR-5 ovarian it was 1.75 µM. In addition, the concentration for total growth inhibition (TGI) in the assay with SK-MEL-28 melanoma came to 2.3 µM; with A498 renal it was 18.9 µM; in the assay with HOP-92 NSCLC, 1.06 µM; in the assay on OVCAR-3 ovarian, 2.01 µM; with ACHN renal, 12.9 µM; in the assay on NCI-H522 lung, 0.375 µM. In addition, the TGI was 4.15 µM in the assay with MOLT-4 leukemia, more than 100 µM with NCI/ADR-RES ovarian, 12.4 µM in the assay with IGROV1 ovarian and 3.69 µM with OVCAR-5 ovarian.
On to `NS(=O)(=O)c1ccc(-c2ccc3c(NC(=O)C4CC4)n[nH]c3c2)cc1`, for which the GI50 with SK-MEL-28 melanoma was more than 25000 nM; in the assay with A498 renal, more than 25 µM; in the assay on HOP-92 NSCLC, 16600 nM; in the assay with OVCAR-3 ovarian it was more than 25000 nM; in the assay on ACHN renal, more than 25 µM; in the assay on NCI-H522 lung, more than 25000 nM. Besides, the GI50 is more than 25 µM in the assay with MOLT-4 leukemia, more than 25 µM in the assay on NCI/ADR-RES ovarian, more than 25000 nM with IGROV1 ovarian and more than 25 µM with OVCAR-5 ovarian. In addition, the TGI with SK-MEL-28 melanoma, with A498 renal, in the assay with HOP-92 NSCLC, in the assay with OVCAR-3 ovarian, with ACHN renal and with NCI-H522 lung was more than 25 µM throughout. Also, the total growth inhibition concentration (TGI) with MOLT-4 leukemia, in the assay on NCI/ADR-RES ovarian, with IGROV1 ovarian and in the assay with OVCAR-5 ovarian was more than 25 µM each time.
As for `COc1cc2c(cc1OCCCCC(=O)Nc1cc3c4ccccc4ccc3c3ccccc13)N=C[C@@H]1CCCN1C2=O`, the GI50 in the assay on SK-MEL-28 melanoma is 3410 nM; in the assay on A498 renal, 2.9 µM; in the assay with HOP-92 NSCLC it was 1450 nM; with OVCAR-3 ovarian, 3020 nM; with ACHN renal it was 38.8 µM; with NCI-H522 lung, 4250 nM. For the same molecule, the GI50 in the assay on MOLT-4 leukemia was 4.62 µM; with NCI/ADR-RES ovarian it was 32.2 µM; in the assay with IGROV1 ovarian, 2110 nM; with OVCAR-5 ovarian it was 11.5 µM. The concentration for total growth inhibition (TGI) in the assay with SK-MEL-28 melanoma was 12.2 µM; with A498 renal it was 9.38 µM; in the assay on HOP-92 NSCLC, more than 20.9 µM; with OVCAR-3 ovarian, 10.1 µM; in the assay on ACHN renal, more than 100 µM; in the assay on NCI-H522 lung, more than 100 µM. Also, the total growth inhibition concentration (TGI) is more than 100 µM in the assay on MOLT-4 leukemia, more than 85.7 µM with NCI/ADR-RES ovarian, more than 25.6 µM in the assay with IGROV1 ovarian and 52.8 µM in the assay on OVCAR-5 ovarian.
Turning to `COc1ccc(-c2[nH]c3ccc(OC)cc3c2/C=C(\C#N)S(=O)(=O)c2ccccc2)cc1`, the GI50 in the assay with SK-MEL-28 melanoma is 765 nM; with A498 renal, 0.966 µM; in the assay with HOP-92 NSCLC it was 692 nM; in the assay with OVCAR-3 ovarian, 356 nM; in the assay on ACHN renal, 1.79 µM; in the assay with NCI-H522 lung it was 1580 nM. The GI50 is 0.745 µM in the assay on MOLT-4 leukemia, 0.479 µM with NCI/ADR-RES ovarian, 3760 nM in the assay on IGROV1 ovarian and 3.85 µM in the assay on OVCAR-5 ovarian. For the same molecule, the concentration for total growth inhibition (TGI) in the assay with SK-MEL-28 melanoma is more than 67.8 µM; in the assay with A498 renal, 8.18 µM; in the assay on HOP-92 NSCLC, 6.81 µM; in the assay on OVCAR-3 ovarian, 1.62 µM; in the assay on ACHN renal it was more than 100 µM; in the assay with NCI-H522 lung, more than 20.7 µM. Besides, the total growth inhibition concentration (TGI) with MOLT-4 leukemia is more than 20.2 µM; with NCI/ADR-RES ovarian it was 9.22 µM; with IGROV1 ovarian, more than 45.9 µM; in the assay on OVCAR-5 ovarian it was more than 100 µM.
On to `CCCCC(CC)COC(=O)C[N+](C)(C)CCOC(c1ccccc1)c1ccccc1` (stereo not given), for which the GI50 with SK-MEL-28 melanoma was 1800 nM; in the assay with A498 renal, 3.12 µM; in the assay on HOP-92 NSCLC, 1860 nM; in the assay with OVCAR-3 ovarian, 1790 nM; in the assay on ACHN renal, 15 µM; in the assay with NCI-H522 lung it was 1750 nM. Also, the GI50 was 2.5 µM in the assay with MOLT-4 leukemia, 23.5 µM in the assay with NCI/ADR-RES ovarian, 1820 nM in the assay with IGROV1 ovarian and 4.11 µM with OVCAR-5 ovarian. Further, the total growth inhibition concentration (TGI) was determined as 3.31 µM in the assay on SK-MEL-28 melanoma; 15.2 µM with A498 renal; 4.9 µM with HOP-92 NSCLC; 3.64 µM in the assay with OVCAR-3 ovarian; 30.5 µM in the assay with ACHN renal; 3.67 µM in the assay on NCI-H522 lung. In addition, the TGI was determined as 6.66 µM in the assay with MOLT-4 leukemia, 70.3 µM in the assay with NCI/ADR-RES ovarian, 3.58 µM with IGROV1 ovarian and 15.8 µM in the assay on OVCAR-5 ovarian.
Regarding `COc1ccc(C2=C(Cl)c3cc(OC)c(OC)cc3C2Cl)cc1` (stereo not given), the concentration for total growth inhibition (TGI) in the assay with SK-MEL-28 melanoma was 31.8 µM; with A498 renal, 28.9 µM; with HOP-92 NSCLC, 30.3 µM; in the assay with OVCAR-3 ovarian, 30.9 µM; in the assay with ACHN renal it was 30.6 µM; in the assay on NCI-H522 lung, more than 27.5 µM. The concentration for total growth inhibition (TGI) was more than 59.4 µM in the assay on MOLT-4 leukemia, 33.3 µM in the assay with NCI/ADR-RES ovarian, 35.7 µM in the assay on IGROV1 ovarian and 29.2 µM in the assay on OVCAR-5 ovarian.

By GI50 is commonly meant the concentration that inhibits growth by half. For orientation: TGI means the concentration at which net growth stops. Read a low TGI as more potent growth arrest.
